The results in this text go back to US10960018B2, “Methods and compounds for stimulating read-through of premature termination codons” (The UAB Research Foundation, priority 2016, dated 2021).

This test relates to FRT W1282X cells. As to the kind of experiment: Transepithelial chloride conductance assay in FRT W1282X cells. Format: cell-based, Rat. The conditions noted are these: 48 hours; escin 10 μM, VX-809 3 μM, GP-5 10 μM, C1+C2 10 μM. The procedure: Stably transfected FRT cells as described herein cells were seeded onto Costar 24-well […] permeable supports at a density of ˜2×10^6 cells/filter and maintained at 37° C. with 5% CO2. Transepithelial resistance was assessed using an epithelial voltmeter to ensure the formation of tight monolayers, as defined by resistance >6 kcm^2. During initial evaluation of agents, cells were treated with compounds (10 μM), vehicle control (0.3% DMSO), or positive control (250 μg/mL G418) for 48 hours before transepithelial conductance (Gt) was assessed; subsequent studies used other concentrations of compounds. Measurements were taken at baseline, after the addition of 20 μM forskolin (FSK, a cAMP agonist that stimulates CFTR activity) and 10 μM CFTRInh-172 (a CFTR-specific inhibitor).
Individual assays were performed as described herein.
As previously reported in the literature, the combination of CFTR correctors (such as VX-809) and CFTR potentiators (such as VX-770) act synergistically to improve CFTR function. […] Compounds alone or in the indicated combination were pre-incubated with FRT W1282X cells for 48 hours. During the assay the baseline conductance (Gt) was initially determined prior to the acute addition of forskolin (20 μM) and VX-770 (10 μM) to stimulate CFTR activity; the CFTR inhibitor, CFTRInh-172 (10 μM), was added to inhibit CFTR activity at the end of the assay. Enhancement of PTC read-through by the compounds of the present disclosure was determined by an increase in CFTR conductance. CFTR conductance also indicated the CFTR was functional as a result of the read-through of the PTC.
Compounds alone or in the indicated combination were pre-incubated with FRT G542X cells for 48 hours. […] Enhancement of PTC read-through by the compounds of the present disclosure was determined by an increase in CFTR conductance. CFTR conductance also indicated the CFTR was functional as a result of the read-through of the PTC.
It has been reported that aminoglycosides interfere with the action read-through stimulating compound. […] CFTR conductance also indicated the CFTR was functional as a result of the read-through of the PTC.
Stimulation of CFTR activity was determined by an increase in CFTR conductance. […] During the assay the baseline conductance (Gt) was initially determined prior to the acute addition of forskolin (20 μM) and GP-5 (10 μM) to stimulate CFTR activity; the CFTR inhibitor, […] (10 μM), was added to inhibit CFTR activity at the end of the assay.
The effect of the read-through stimulating compounds of the present disclosure in combination with the CFTR corrector VX-809 was further examined in FRT cells with the G542X, Y122X and W1282X mutations. […] CFTR conductance also indicated the CFTR was functional as a result of the read-through of the PTC.

On to `Cc1ccc(NC(=O)C2(c3ccc4c(c3)OC(F)(F)O4)CC2)nc1-c1cccc(C(=O)O)c1` [VX-809], for which the “CFTR stimulation (conductance) in the presence of forskolin and GP-5” value is “varying stimulatory effects”.
